# Reference: paper PMC9220178, “Preclinical Characterization of Antioxidant Quinolyl Nitrone QN23 as a New Candidate for the Treatment of Ischemic Stroke” (Antioxidants, 2022)
# Columns and labels:
# [1] = test system: Wistar male rats subjected to global cerebral ischemia; assay: Imaging of cerebral ROS with dihydroethidium (DHE) in brain ischemia; format: in vivo, rat; conditions: 2.0 mg/kg i.v. at reperfusion onset; CA1 and cortical regions; 6 h of reperfusion
# Description: In order to evaluate the antioxidant capacity of QN23 in vivo, the fluorescent probe dihydroethidium (DHE) was used for superoxide and hydrogen peroxide detection according to the experimental procedure described in [29], with minor modifications. Animals subjected to global cerebral ischemia (Wistar male rats of 280–300 g) were treated with vehicle or QN23 at the onset of the reperfusion period, and after 2 h of reperfusion DHE (3.0 mg/kg; 0.9 mg/mL in DMSO/polyethylene glycol 400/saline, 2.5:50:47.5 v/v) was intravenously injected (1 mL). DHE (Sigma-Aldrich, Merck KGaA, Darmstadt, Germany) was freshly weighted and dissolved just before the injection to avoid undesired air-driven oxidation. At 6 h of reperfusion after ischemia (4 h after DHE injection), the animals were euthanized and perfused with saline and 4% (w/v) paraformaldehyde in PBS. […]
# Hippocampal CA1 subfields and cortical fields from a given brain section were randomly selected and analyzed with fluorescence microscopy (20× objective), and the selected images (425 × 340 μm) were digitized with a color CCD camera (1280 × 1024 pixel resolution). Fluorescence intensity (in red) of ROS-reacted DHE was evaluated and normalized to the number of DAPI-stained nuclei by using an image analysis software (Image-J 1.53). At least four images per brain sample, and 3 to 6 brains per experimental group, were evaluated and averaged. […]
# [2] = test system: male Wistar rats, transient middle cerebral artery occlusion (tMCAO); assay: Infarct and edema volume (TTC staining) in transient focal cerebral ischemia (tMCAO); format: in vivo, rat; conditions: 48 h after tMCAO
# Description: For the transient focal cerebral ischemia experimental model we used 12-week-old male Wistar rats (300–350 g, Charles River), housed under standard conditions with food and water ad libitum. The animals were anesthetized by an intraperitoneal injection of a mixture of 100 mg/kg ketamine, 5 mg/kg diazepam, and 0.3 mg/kg atropine. Anesthesia was maintained during the surgical procedure by inhalation of 1–1.5% sevoflurane in 80% medicinal air plus 20% O2. For the transient occlusion of the right middle cerebral artery (tMCAO, 60 min), we followed the intraluminal suture procedure as originally described, adapted to our experimental setup. The procedure included continuous monitoring of cortical perfusion (CP, by Laser-Doppler flowmetry), arterial blood pressure, and core temperature, and discontinuous measurement of glycemia levels during preischemia (basal), ischemia, and reperfusion stages. Buprenorphine (subcutaneous, 0.05 mg/kg) was used as an analgesic. Forty-eight hours after the ischemic insult, the animals were euthanized by intracardiac injection of potassium chloride (200 mg/kg) under deep anesthesia, and the brains were obtained.
# A power analysis (see above) provided a sample size of 6 subjects per group. A total of 35 animals was used in this study. […]
# Brain infarct volume was determined by the 2,3,5-triphenyltetrazolium chloride (TTC; Sigma-Aldrich, Merck KGaA, Darmstadt, Germany) vital staining method, followed by morphometric analysis by a researcher blind to the treatment allocation. […] In order to correct for the influence of edema, the infarcted area was calculated as follows: corrected infarct area = infarct area × (contralateral hemisphere area / ipsilateral hemisphere area). The corrected infarct area was measured on both the anterior and the posterior sides of each slice and averaged; the corrected infarct volume was calculated by multiplying the average corrected infarct area by the thickness of the slice (2 mm), and the total corrected infarct volume by adding up the corrected infarct volume of the seven slices. […]
structure (smiles),measurement,setting,value
"COc1ccc2nc(Cl)c(/C=[N+](\[O-])C(C)(C)C)cc2c1 [QN23, (Z)-N-tert-Butyl-1-(2-chloro-6-methoxyquinolin-3-yl)methanimine Oxide]",Fluorescence intensity of ROS-reacted DHE compared with vehicle,[1],decreased significantly
same,Brain damage (total infarct volume) compared with vehicle,[2]; 1.5 mg/kg and 2.5 mg/kg i.v.,significantly reduced brain damage
same,Edema volume compared with vehicle,[2]; 1.5 mg/kg and 2.5 mg/kg i.v.,reduced
same,Brain damage (total infarct volume) compared with vehicle,[2]; 4 mg/kg i.v.,not at 4 mg/kg
